In one assay the target is AuroraB (h) (Homo sapiens, UniProt Q96GD4). Description: Aurora-B human kinase inhibition, SPA. The assay is classed as biochemical. To be noted: read-out: AuroraB pIC50 (converted). An outline of the steps: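 SPA with biotinylated peptide (3 μM) in 60 mM Hepes pH 7.5, Mg/Mn 3 mM each, 0.5 μM ATP plus [γ-33P]ATP, AuroraB at 0.5 μg/ml. The reaction runs 60 min at room temperature and is stopped with EDTA and streptavidin PVT beads. 33P-substrate is read by scintillation imaging.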

A further assay concerns the target PLK3 (h) (Homo sapiens, UniProt Q9H4B4). The experiment in a line: PLK3 human kinase inhibition, SPA. It is filed as biochemical. To be noted: read-out: PLK3 pIC50 (converted). An outline of the steps: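 SPA: PLK3 (h) at 30 μg/ml with 2 μM biotinylated peptide, 0.1 μM ATP plus 2 nM [γ-33P]ATP in 50 mM Hepes pH 8.0, 2 mM MnCl2 and 1 mM DTT. Incubated 20 min at room temperature, then stopped with EDTA and streptavidin PVT beads. Scintillation imaged on Leadseeker.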

The next assay concerns the target CDK4/CyclinD1 (h) (Homo sapiens, UniProt P11802). The experiment in a line: CDK4/CyclinD1 human kinase inhibition, SPA with GST-pRb substrate. It is filed as biochemical. To be noted: read-out: CDK4 pIC50 (converted). Put shortly: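 Human CDK4/CyclinD1 (2.5 μg/ml) was incubated with 40 μg/ml GST-pRb and 2 nM [γ-33P]ATP in 50 mM Hepes pH 7.5, 8 mM NaF, 20 mM MgCl2, 1 mM DTT for 60 min at room temperature. EDTA stop with glutathione SPA beads; phosphorylation read by scintillation counting.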

For another assay, the system named is H1299. Description: Cellular proliferation assay (Alamar blue), H1299. To be noted: Homo sapiens, NCI-H1299; 10% FCS; 72 hours with compound; Alamar blue 4 h. The assay is classed as cell-based. An outline of the steps: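 This proliferation assay on NCI-H1299 cells used an initial 24-hour compound-free incubation after seeding, followed by 72 hours of compound treatment with 10% FCS serum at 37° C. and 5% (v/v) CO2. Viable cells were quantified by a 4 h Alamar blue incubation and fluorescent plate reading at 544 nm/590 nm, and effects were expressed relative to control cells.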
In general terms: Resazurin is reduced to fluorescent resorufin, in cell work by metabolically active cells.

Here are results for 27 compounds from patent US8609836B2, “4-aryl-2-anilino-pyrimidines” (Janssen Pharmaceutica NV, priority 2008, dated 2013).

A value given as a limit tells only on which side of the number the result lay.

Sequence of CDK4/CyclinD1 (h) (P11802 whole entry): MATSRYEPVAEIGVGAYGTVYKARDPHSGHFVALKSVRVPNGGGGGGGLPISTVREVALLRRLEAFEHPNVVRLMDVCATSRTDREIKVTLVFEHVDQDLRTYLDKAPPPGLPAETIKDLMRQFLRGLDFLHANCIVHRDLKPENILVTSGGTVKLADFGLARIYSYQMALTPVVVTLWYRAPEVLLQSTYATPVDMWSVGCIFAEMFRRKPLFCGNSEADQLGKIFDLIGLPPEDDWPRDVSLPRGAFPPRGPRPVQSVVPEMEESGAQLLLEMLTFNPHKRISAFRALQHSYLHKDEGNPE
Sequence of CDK4/CyclinD1 (h) (P24385 whole entry partner): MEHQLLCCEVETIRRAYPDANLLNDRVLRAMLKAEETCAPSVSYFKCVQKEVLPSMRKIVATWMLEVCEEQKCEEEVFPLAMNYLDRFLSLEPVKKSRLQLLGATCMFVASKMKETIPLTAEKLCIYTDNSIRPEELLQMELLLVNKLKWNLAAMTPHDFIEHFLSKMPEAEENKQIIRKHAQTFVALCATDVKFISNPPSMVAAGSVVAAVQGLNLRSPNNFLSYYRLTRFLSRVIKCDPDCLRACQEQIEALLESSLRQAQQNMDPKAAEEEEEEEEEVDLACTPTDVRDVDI
Sequence of AuroraB (h) (Q96GD4 whole entry): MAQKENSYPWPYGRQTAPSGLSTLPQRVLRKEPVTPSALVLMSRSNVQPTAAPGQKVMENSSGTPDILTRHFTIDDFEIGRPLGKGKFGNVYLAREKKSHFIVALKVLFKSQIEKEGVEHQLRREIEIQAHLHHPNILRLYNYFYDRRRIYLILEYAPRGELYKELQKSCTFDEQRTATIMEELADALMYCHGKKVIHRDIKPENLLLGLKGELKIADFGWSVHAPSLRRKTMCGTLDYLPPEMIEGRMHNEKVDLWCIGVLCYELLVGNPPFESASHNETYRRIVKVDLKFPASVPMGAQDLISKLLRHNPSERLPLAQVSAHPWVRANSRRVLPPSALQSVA
Sequence of PLK3 (h) (Q9H4B4 whole entry): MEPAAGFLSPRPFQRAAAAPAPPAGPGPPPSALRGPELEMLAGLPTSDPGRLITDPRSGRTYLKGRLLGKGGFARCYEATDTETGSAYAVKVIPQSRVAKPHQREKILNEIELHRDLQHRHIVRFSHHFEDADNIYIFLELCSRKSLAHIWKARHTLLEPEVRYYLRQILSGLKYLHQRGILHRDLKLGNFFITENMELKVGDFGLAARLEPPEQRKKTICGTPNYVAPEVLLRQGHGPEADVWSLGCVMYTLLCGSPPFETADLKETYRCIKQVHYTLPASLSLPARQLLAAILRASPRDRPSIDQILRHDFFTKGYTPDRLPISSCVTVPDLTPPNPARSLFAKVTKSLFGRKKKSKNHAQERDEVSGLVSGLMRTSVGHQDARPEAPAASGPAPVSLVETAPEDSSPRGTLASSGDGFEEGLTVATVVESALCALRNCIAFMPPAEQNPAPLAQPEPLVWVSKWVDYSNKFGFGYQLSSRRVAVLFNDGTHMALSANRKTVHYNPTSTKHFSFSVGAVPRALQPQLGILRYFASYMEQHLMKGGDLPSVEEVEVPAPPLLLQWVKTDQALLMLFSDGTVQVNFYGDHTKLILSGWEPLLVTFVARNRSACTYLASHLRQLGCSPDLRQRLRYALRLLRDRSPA

Take `O=C1NCc2cccc(c2)-c2ccnc(n2)Nc2cc(ccc2Cl)CN[C@H]1Cc1ccccc1` [Compound 189]: the IC50 was > 10 µM on AuroraB (h), > 10 µM on PLK3 (h), 5.75 µM on CDK4/CyclinD1 (h) and > 10 µM with H1299.

For `O=C1NCc2cccc(c2)-c2ccnc(n2)Nc2cccc(c2)CN2CCC1CC2` [Compound 124], the IC50 at AuroraB (h) is > 10 µM; on PLK3 (h) it was > 10 µM; at CDK4/CyclinD1 (h), 1.7 µM; in the assay with H1299, > 10 µM.

In the case of `O=C1NCc2cccc(c2)-c2ccnc(n2)Nc2cc(cc(C(=O)N3CCOCC3)c2)CN2CCC[C@@H]12` [Compound 32], the IC50 at AuroraB (h) was > 10 µM; on PLK3 (h), > 10 µM; on CDK4/CyclinD1 (h), 3.31 µM; in the assay with H1299, > 10 µM.

`O=C1NCc2cc(ccc2N2CCOCC2)Nc2nccc(n2)-c2cccc(c2)CCN2CCC[C@@H]12` [Compound 43]: the IC50 is > 10 µM on AuroraB (h), > 10 µM on PLK3 (h), 0.427 µM at CDK4/CyclinD1 (h) and > 10 µM in the assay with H1299.

Turning to `C[C@@H]1NCc2cccc(c2)-c2ccnc(n2)Nc2ccc(N3CCOCC3)c(c2)CNC1=O` [Compound 101], the IC50 on AuroraB (h) is > 10 µM; on PLK3 (h) it was > 10 µM; on CDK4/CyclinD1 (h) it was 2.57 µM; with H1299, 6.61 µM.

For the compound `C[C@@H]1NCCc2cccc(c2)-c2ccnc(n2)Nc2ccc(N3CCOCC3)c(c2)CNC1=O` [Compound 100], the IC50 was > 10 µM on AuroraB (h), > 10 µM on PLK3 (h), 0.2 µM on CDK4/CyclinD1 (h) and 2.95 µM in the assay with H1299.

In the case of `COc1ccc2cc1CN(C)CCNC(=O)[C@@H]1CCCN1Cc1cc(cc(NC(C)C)c1)Nc1nccc-2n1` [Compound 165], the IC50 on AuroraB (h), at PLK3 (h), at CDK4/CyclinD1 (h) and in the assay on H1299 was > 10 µM each time.

With `O=C1NCc2cccc(c2)-c2ccnc(n2)Nc2ccc(C(=O)N3CCOCC3)c(c2)CN2CCC[C@@H]12` [Compound 26], the IC50 at AuroraB (h) is > 10 µM; on PLK3 (h) it was > 10 µM; at CDK4/CyclinD1 (h), > 10 µM; in the assay on H1299 it was 2.45 µM.

As for `COc1ccc2cc1CN(C)CCNC(=O)[C@@H]1CCCN1Cc1cc(C#N)cc(c1)Nc1nccc-2n1` [Compound 181], the IC50 at AuroraB (h), on PLK3 (h), at CDK4/CyclinD1 (h) and with H1299 was > 10 µM throughout.

`O=C1NCCOc2cccc(c2)-c2ccnc(n2)Nc2ccc(N3CCOCC3)c(c2)CN2CCC1CC2` [Compound 94]: the IC50 on AuroraB (h) is > 10 µM; at PLK3 (h) it was > 10 µM; on CDK4/CyclinD1 (h), 3.63 µM; with H1299 it was 8.13 µM.

Turning to `O=C1NCc2cccc(c2)-c2ccnc(n2)Nc2ccc(cc2)CN2C[C@H](O)C[C@@H]12` [Compound 55], the IC50 on AuroraB (h), at PLK3 (h), on CDK4/CyclinD1 (h) and in the assay with H1299 was > 10 µM in each case.

Turning to `COc1cc2cc(c1)Nc1nccc(n1)-c1ccc(OC)c(c1)CN(C)CCNC(=O)CN1CCN(CC1)C2` [Compound 127], the IC50 at AuroraB (h) is 2 µM; on PLK3 (h), > 10 µM; at CDK4/CyclinD1 (h) it was > 10 µM; with H1299, > 10 µM.

For `CN1CCNC(=O)[C@H](CO)NCc2cccc(c2)Nc2nccc(n2)-c2ccc(cc2)C1` [Compound 114], the IC50 at AuroraB (h) was 7.08 µM; on PLK3 (h), > 10 µM; at CDK4/CyclinD1 (h), > 10 µM; in the assay on H1299 it was > 10 µM.

For `O=C1NCc2cc(ccc2N2CCOCC2)Nc2nccc(n2)-c2cccc(c2)CN2CCC[C@@H]12` [Compound 15], the IC50 was 2.95 µM at AuroraB (h), > 10 µM on PLK3 (h), 4.47 µM at CDK4/CyclinD1 (h) and > 10 µM in the assay with H1299.

For `O=C1CN2CCN(CC2)Cc2cccc(c2)Nc2nccc(n2)-c2cccc(c2)CN1` [Compound 196], the IC50 was > 10 µM at AuroraB (h), > 10 µM on PLK3 (h), 6.17 µM at CDK4/CyclinD1 (h) and > 10 µM in the assay with H1299.

As to `COc1cc2cc(c1)Nc1nccc(n1)-c1ccc(cc1)CN(C)CCNC(=O)CN1CCN(CC1)C2` [Compound 132], the IC50 at AuroraB (h), on PLK3 (h), at CDK4/CyclinD1 (h) and in the assay with H1299 was > 10 µM in each case.

In the case of `CC(C)Nc1cc2cc(c1)Nc1nccc(n1)-c1ccc(cc1)CN(C)CCCNC(=O)CN1CCN(CC1)C2` [Compound 131], the IC50 at AuroraB (h), at PLK3 (h), at CDK4/CyclinD1 (h) and with H1299 was > 10 µM throughout.

`COc1cc2cc(c1)Nc1nccc(n1)-c1ccc(OC)c(c1)CN(C)CCNC(=O)[C@H](CO)NC2` [Compound 107]: the IC50 on AuroraB (h) is 2.04 µM; on PLK3 (h) it was > 10 µM; at CDK4/CyclinD1 (h), > 10 µM; in the assay on H1299 it was > 10 µM.

For `O=C(NC1CCOCC1)c1cc2cc(c1)Nc1nccc(n1)-c1cccc(c1)CNC(=O)[C@@H]1CCCN1C2` [Compound 37], the IC50 at AuroraB (h) was 4.9 µM; at PLK3 (h), > 10 µM; on CDK4/CyclinD1 (h) it was > 10 µM; in the assay on H1299, > 10 µM.

Take `COc1cc2cc(c1)Nc1nccc(n1)-c1ccc(OC)c(c1)CN(C)CCCNC(=O)CN1CCN(CC1)C2` [Compound 140]: the IC50 on AuroraB (h), at PLK3 (h), at CDK4/CyclinD1 (h) and with H1299 was > 10 µM throughout.

Regarding `COc1cc2cc(c1)Nc1nccc(n1)-c1ccc(cc1)CN(C)CCCNC(=O)C1CCN(CC1)C2` [Compound 66], the IC50 on AuroraB (h), on PLK3 (h), at CDK4/CyclinD1 (h) and with H1299 was > 10 µM throughout.

As to `COc1cc2cc(c1)Nc1nccc(n1)-c1ccc(OC)c(c1)CN(C)CCNC(=O)C1CCN(CC1)C2` [Compound 67], the IC50 was 5.13 µM at AuroraB (h), > 10 µM at PLK3 (h), > 10 µM on CDK4/CyclinD1 (h) and > 10 µM in the assay on H1299.

Consider `COc1cc2cc(c1OC)CN1CCC[C@H]1C(=O)NCc1cccc(c1)-c1ccnc(n1)N2` [Compound 23], for which the IC50 on AuroraB (h), on PLK3 (h), at CDK4/CyclinD1 (h) and in the assay on H1299 was > 10 µM throughout.

With `CN1CCC(NC(=O)c2cc3cc(c2)Nc2nccc(n2)-c2cccc(c2)CNC(=O)[C@@H]2CCCN2C3)CC1` [Compound 38], the IC50 is > 10 µM at AuroraB (h), > 3.02 µM on PLK3 (h), 3.47 µM on CDK4/CyclinD1 (h) and > 10 µM with H1299.

Regarding `CN1CCN(C(=O)c2ccc3cc2CN2CCC[C@H]2C(=O)NCc2cccc(c2)-c2ccnc(n2)N3)CC1` [Compound 25], the IC50 is > 10 µM at AuroraB (h), > 10 µM on PLK3 (h), > 10 µM on CDK4/CyclinD1 (h) and 3.31 µM with H1299.

On to `O=C1NCc2cccc(c2)-c2ccnc(n2)Nc2ccc(N3CCOCC3)c(c2)CN2CCC1CC2` [Compound 95], for which the IC50 was > 10 µM on AuroraB (h), > 10 µM on PLK3 (h), 1.29 µM at CDK4/CyclinD1 (h) and > 10 µM in the assay with H1299.

In the case of `O=C1NCc2cc(ccc2N2CCOCC2)Nc2nccc(n2)-c2cccc(c2)CCCN2CCC[C@@H]12` [Compound 149], the IC50 was 11 µM on AuroraB (h), > 10 µM on PLK3 (h), 0.0724 µM at CDK4/CyclinD1 (h) and 0.832 µM in the assay on H1299.
